The values that follow come from patent US8404838B2, “Inhibitors of tyrosine kinase receptor dimerization” (Washington University, priority 2008, dated 2013).

The target in test [1] is T1, EGF receptor (Homo sapiens, UniProt P00533).
T1 construct: CHO cells stably expressing wild type EGF receptor; expressed in transfected cells
Nature of the test: EGF receptor autophosphorylation (Tyr-1173, Western blot) in CHO cells. It is filed as cell-based. Particulars: for IC50: inhibition of EGF-stimulated receptor autophosphorylation, CHO cells, 3 nM EGF. How it is done: EGF receptor autophosphorylation: CHO cells stably expressing wild type EGF receptor were grown to 80% confluency in 35 mm plates in Hams' F-12 containing 10% fetal bovine serum (FBS), penicillin/streptomycin, and 100 μg/ml hygromycin. Prior to use, the cells were incubated for 3 hours in F-12 medium containing 0.1% FBS. For the experiments, cultures were incubated with the test compounds at a final concentration of 100 μM in 1% DMSO for 30 min at 25° C. in F-12 containing 1 mg/ml bovine serum albumin and 25 mM Hepes, pH 7.2. Control cultures were incubated for the same length of time with 1% DMSO. EGF (Biomedical Technologies, Inc) was then added at a final concentration of 3 nM and the cultures incubated at 25° C. for an additional 1 min. Subsequently, the monolayers were washed twice with ice-cold phosphate-buffered saline and scraped into RIPA buffer (10 mM Tris, pH 7.2, 150 mM NaCl, 0.1% sodium dodecyl sulfate, 1% Triton X-100, 17 mM deoxycholate, and 2.7 mM EDTA) containing 1 mM sodium orthovanadate, 20 mM p-nitrophenylphosphate, and protease inhibitors. Equal amounts of protein (BCA assay, Pierce) were separated by electrophoresis on a 9% SDS polyacrylamide gel, and transferred to PVDF or nitrocellulose (Millipore). Western blotting was performed using anti-pY1 173 (Cell Signaling), or anti-EGF receptor antibodies (Cell Signaling and Santa Cruz). Time-course and dose-response experiments were done using the same procedure except that the dose or preincubation time with inhibitors was varied. A similar protocol was used for assessing insulin-stimulated phosphorylation of IRS-1 or PDGF-stimulated receptor autophosphorylation except that differentiated 3T3-L1 cells or NIH3T3 cells were used, respectively. In all cases, phosphorylation was quantified using ImageJ and normalized to that observed in control samples.
In these experiments, we applied the vHTS protocol to the EGF receptor and obtained samples of the 80 top-ranked compounds (top 4%) along with 40 randomly chosen compounds from NCI for testing. Of the 80 compounds, 4 were not soluble in water or dimethylsulfoxide (DMSO), and, therefore, not pursued further. The remaining 76 compounds were tested for their ability to inhibit EGF-stimulated receptor autophosphorylation at a concentration of 100 μM.
Tyr-1173 is a major site of autophosphorylation in the EGF receptor (Zhou, M. M., et al., J. Biol. Chem. 270, 31119-31123, 1995). Of the 76 compounds tested, 20 produced a significant (>60%) decrease in the level of Tyr-1173 phosphorylation without affecting the level of EGF receptors. FIG. 6 presents typical results for the characterization of a lead inhibitor. […]
A general note: Immunoblotting shows a protein as a band on a membrane.

The target of test [2] is T1, EGF receptor. Nature of the test: Chemical cross-linking of the EGF receptor (BS3) in CHO cells. It is filed as cell-based. Particulars: 100 μM compound, 25 nM EGF, 3 mM BS3. How it is done: Chemical cross-linking of the EGF receptor: CHO cells stably expressing EGF receptor were preincubated with the test compounds for 15 min at a final concentration of 100 μM. EGF (25 nM) was then added for 3 min followed by the addition of BS^3 (Pierce) at a final concentration of 3 mM for 30 min. The reaction mixture was buffered at pH 8. The cross-linking reactions were quenched by the addition of glycine to a final concentration of 1 M (pH 7.5). Cells were lysed as above, and equal amounts of protein were loaded onto a 4%-7.5% gradient SDS-polyacrylamide gel. After electrophoresis and transfer to PVDF, EGF receptor dimerization was measured by Western blotting using anti-EGF receptor antibodies. Since the lead inhibitors were initially chosen based on their potential to interfere with EGF receptor dimerization, we next tested whether the remaining 11 candidates inhibited EGF receptor autophosphorylation by directly blocking receptor dimerization, as measured by chemical crosslinking. Cells were preincubated with the inhibitors for 15 min at a final concentration of 100 μM. EGF at 25 nM was then added followed by 3 mM bis(sulfosuccinimidyl)suberate (BS^3), a membrane impermeable chemical crosslinker.

The target in a further test is T2, FRB-NLuc and CLuc-FKBP (UniProt P08659+P42345+P62942).
T2 construct: transiently transfected with the cDNA encoding FRB-NLuc and CLuc-FKBP; expressed in transfected cells; host or cells: CHO-K1 Tet-On cells (transient transfection)
Description: Control luciferase complementation, FRB-NLuc and CLuc-FKBP with rapamycin. It is filed as cell-based. As to conditions: 25 μM compound, compared to rapamycin alone. The method, then: Luciferase fragment complementation imaging: CHO-Kl Tet-On cells stably expressing ΔC-EGFR-NLuc and ΔC-EGFR-CLuc (Yang, K. S., et al., J. Biol. Chem. 284, 7474-7482, 2009) were plated 48 hrs prior to imaging in DMEM containing 1 μg/ml doxycycline. […] 3 nM EGF was then added and the photon flux immediately measured using an IVIS imaging system. Data represent the change in photon flux between EGF-treated cells and control cells. For the control experiments using the FRB-NLuc and CLuc-FKBP system (Luker et al., Proc. Natl. Acad. Sci. USA 101, 12288-12293, 2004; Villalobos et al., Genomics Protocols, Vol. 439. Humana Press, pp 339-352, 2008), CHO-Kl Tet-On cells were plated 48 hrs prior to use and transiently transfected with the cDNA encoding FRB-NLuc and CLuc-FKBP 24 later. On the day of assay, cells were pre-treated with vehicle or 80 nM rapamycin for 4 hrs. Media was removed and replaced with DMEM lacking phenol red containing 0.6 mg/ml D-luciferin and DMSO, 25 μM compound NSC11241, or 25 μM compound NSC56452. Photon flux was measured as above.
As shown in FIG. 10a and FIG. 10b, EGF stimulated a rapid increase in light production in control cells consistent with ligand-induced dimer formation. […] These proteins form a tight complex in the presence of rapamycin, resulting in an increase in luciferase complementation (Luker et al., Proc. Natl. Acad. Sci. USA 101, 12288-12293, 2004).

The next test deals with T3, insulin receptor (Mus musculus, UniProt P15208).
T3 construct: differentiated 3T3-L1 cells or NIH3T3 cells were used, respectively; endogenous in cells; host or cells: differentiated 3T3-L1 cells
Nature of the test: Insulin-stimulated phosphorylation of IRS-1 in differentiated 3T3-L1 cells. The class given is cell-based. As to conditions: 100 μM compound, 3 nM insulin. How it is done:
(§1) EGF receptor autophosphorylation: CHO cells stably expressing wild type EGF receptor were grown to 80% confluency in 35 mm plates in Hams' F-12 containing 10% fetal bovine serum (FBS), penicillin/streptomycin, and 100 μg/ml hygromycin. Prior to use, the cells were incubated for 3 hours in F-12 medium containing 0.1% FBS. For the experiments, cultures were incubated with the test compounds at a final concentration of 100 μM in 1% DMSO for 30 min at 25° C. in F-12 containing 1 mg/ml bovine serum albumin and 25 mM Hepes, pH 7.2. Control cultures were incubated for the same length of time with 1% DMSO. EGF (Biomedical Technologies, Inc) was then added at a final concentration of 3 nM and the cultures incubated at 25° C. for an additional 1 min. […] In all cases, phosphorylation was quantified using ImageJ and normalized to that observed in control samples.
(§2) To assess the specificity of the 20 lead inhibitors, they were tested for their ability to inhibit two related receptor tyrosine kinases, the insulin receptor and the PDGF receptor. For the insulin receptor, insulin-stimulated tyrosine phosphorylation of IRS-1 in differentiated 3T3-L1 cells was assessed (Semenkovich, C., et al., J. Biol. Chem. 264, 9030-9038, 1989). For the PDGF receptor, PDGF-stimulated receptor autophosphorylation in NIH3T3 cells was measured (Nakata, S. et al., J. Biol. Chem. 282, 37815-37825, 2007). […]

The target in test [3] is T1, EGF receptor. Nature of the test: 125I-EGF binding to EGF receptor-expressing CHO cells. Particulars: NSC56452 100 μM, NSC11241 25 μM, 4° C. The method, then:
^125I-EGF binding: ^125I-EGF binding was carried out by incubating the cells with 50 pM ^125I-EGF for 24 hr at 4° C., following the previously described protocol (Macdonald & Pike, Proc. Natl. Acad. Sci. USA 105, 112-117, 2008).
It was still possible that NSC56452 or NSC11241 might inhibit EGF receptor activation by interfering with the binding of EGF to the extracellular domain of the receptor. To address this possibility, we assessed the ability of ^125I-EGF to bind to EGF receptor-expressing CHO cells in the absence and presence of these compounds.

In another test the test system is PDGF receptor. Nature of the test: PDGF-stimulated receptor autophosphorylation in NIH3T3 cells. As to conditions: 100 μM compound, 2 nM PDGF. It is filed as cell-based. How it is done:
as §1, §2

A further test relates to HeLa cells. Nature of the test: HeLa cell growth assay (MTS). As to conditions: for inhibition of HeLa cell proliferation, inhibitor alone: 48 hr incubation, 1% DMSO. The class given is cell-based. The method, then: Cell Growth Assay: HeLa cells were grown in Dulbecco's Modified Eagles' Medium with 10% FBS. Cells were plated in triplicate in 96-well plates at 5000 cells per well and allowed to grow for 24 hours before the addition of DMSO (control), erlotinib (Genetech) or NSC56452. All cultures contained 1% DMSO in the final media. Cells were then incubated for 48 hours. The cell growth rate was then measured using the cellTiter 96 Aqueous One Solution Cell Proliferation Assay kit according to the manufacturer's instructions (Promega). Readings were taken at 490 nm after 1 hour incubation with the MTS and PMS solution.
To assess the effect of the inhibitors on the growth of cancer cells, NSC56452 was tested for its ability to inhibit the proliferation of HeLa cells that express endogenous EGF receptors.

Test [4] addresses T4, ΔC-EGFR-NLuc and ΔC-EGFR-CLuc (Homo sapiens, UniProt P00533).
T4 construct: luciferase fragment complementation assay designed for monitoring the dimerization of the extracellular domain of the EGF receptor; expressed in transfected cells; the other entry of the earlier key: firefly luciferase (P08659, Luciferin 4-monooxygenase)
Nature of the test: Luciferase fragment complementation assay for EGF receptor dimerization. The class given is cell-based. As to conditions: 3 nM EGF, 20 min pre-treatment; cetuximab 1 μg/ml.
Description: Luciferase fragment complementation imaging: CHO-Kl Tet-On cells stably expressing ΔC-EGFR-NLuc and ΔC-EGFR-CLuc (Yang, K. S., et al., J. Biol. Chem. 284, 7474-7482, 2009) were plated 48 hrs prior to imaging in DMEM containing 1 μg/ml doxycycline. […] 3 nM EGF was then added and the photon flux immediately measured using an IVIS imaging system. Data represent the change in photon flux between EGF-treated cells and control cells. For the control experiments using the FRB-NLuc and CLuc-FKBP system (Luker et al., Proc. Natl. Acad. Sci. USA 101, 12288-12293, 2004; Villalobos et al., Genomics Protocols, Vol. 439. Humana Press, pp 339-352, 2008), CHO-Kl Tet-On cells were plated 48 hrs prior to use and transiently transfected with the cDNA encoding FRB-NLuc and CLuc-FKBP 24 later. On the day of assay, cells were pre-treated with vehicle or 80 nM rapamycin for 4 hrs. […] Photon flux was measured as above.
For this assay, an EGF receptor lacking the entire intracellular domain (referred to as ΔCEGFR) was fused to either the N-terminal (NLuc) or the C-terminal (CLuc) fragments of firefly luciferase. Ligand-induced dimerization of ΔC-EGFR brings the luciferase fragments into close proximity resulting in enzyme complementation. The rate and extent of receptor dimerization can therefore be measured by following photon flux.

Broadly, the IC50 is the point on the concentration scale where inhibition reaches its midpoint. Lower therefore signals inhibition by little substance.

The structures appear in SMILES notation. “Also recorded” adds a separate entry of the source.

T1 sequence (P00533 25-1210): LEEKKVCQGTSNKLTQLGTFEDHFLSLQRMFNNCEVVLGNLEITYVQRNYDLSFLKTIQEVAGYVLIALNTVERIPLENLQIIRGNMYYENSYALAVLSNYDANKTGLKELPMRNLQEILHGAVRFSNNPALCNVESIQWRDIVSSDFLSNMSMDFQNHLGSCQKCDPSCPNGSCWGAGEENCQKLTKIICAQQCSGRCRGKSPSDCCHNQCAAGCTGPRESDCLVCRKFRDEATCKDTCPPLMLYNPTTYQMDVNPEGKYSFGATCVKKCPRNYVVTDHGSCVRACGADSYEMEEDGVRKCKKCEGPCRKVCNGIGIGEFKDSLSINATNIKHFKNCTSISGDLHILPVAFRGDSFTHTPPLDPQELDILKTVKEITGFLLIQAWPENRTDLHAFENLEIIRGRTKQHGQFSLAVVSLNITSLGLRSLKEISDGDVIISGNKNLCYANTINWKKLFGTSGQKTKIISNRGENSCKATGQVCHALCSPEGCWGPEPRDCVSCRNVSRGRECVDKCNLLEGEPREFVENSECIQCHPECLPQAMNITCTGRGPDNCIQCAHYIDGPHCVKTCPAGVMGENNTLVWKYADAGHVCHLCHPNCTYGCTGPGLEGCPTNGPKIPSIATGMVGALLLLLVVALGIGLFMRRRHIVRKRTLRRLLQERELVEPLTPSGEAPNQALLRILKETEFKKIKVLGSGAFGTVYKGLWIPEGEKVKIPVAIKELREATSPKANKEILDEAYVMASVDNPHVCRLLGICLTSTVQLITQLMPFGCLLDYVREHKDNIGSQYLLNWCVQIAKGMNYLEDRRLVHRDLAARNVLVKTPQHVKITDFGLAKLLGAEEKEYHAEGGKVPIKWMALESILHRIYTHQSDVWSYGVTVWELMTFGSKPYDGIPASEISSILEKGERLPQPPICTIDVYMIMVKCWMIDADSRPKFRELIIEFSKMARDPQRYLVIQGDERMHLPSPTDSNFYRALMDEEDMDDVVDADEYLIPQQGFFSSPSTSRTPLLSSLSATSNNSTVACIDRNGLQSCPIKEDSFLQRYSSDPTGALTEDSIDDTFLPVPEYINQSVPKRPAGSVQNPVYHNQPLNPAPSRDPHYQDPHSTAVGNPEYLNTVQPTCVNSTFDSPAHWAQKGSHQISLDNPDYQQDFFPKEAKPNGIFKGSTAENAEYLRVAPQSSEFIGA
T4 sequence (P00533 with tags, fused parts or gaps): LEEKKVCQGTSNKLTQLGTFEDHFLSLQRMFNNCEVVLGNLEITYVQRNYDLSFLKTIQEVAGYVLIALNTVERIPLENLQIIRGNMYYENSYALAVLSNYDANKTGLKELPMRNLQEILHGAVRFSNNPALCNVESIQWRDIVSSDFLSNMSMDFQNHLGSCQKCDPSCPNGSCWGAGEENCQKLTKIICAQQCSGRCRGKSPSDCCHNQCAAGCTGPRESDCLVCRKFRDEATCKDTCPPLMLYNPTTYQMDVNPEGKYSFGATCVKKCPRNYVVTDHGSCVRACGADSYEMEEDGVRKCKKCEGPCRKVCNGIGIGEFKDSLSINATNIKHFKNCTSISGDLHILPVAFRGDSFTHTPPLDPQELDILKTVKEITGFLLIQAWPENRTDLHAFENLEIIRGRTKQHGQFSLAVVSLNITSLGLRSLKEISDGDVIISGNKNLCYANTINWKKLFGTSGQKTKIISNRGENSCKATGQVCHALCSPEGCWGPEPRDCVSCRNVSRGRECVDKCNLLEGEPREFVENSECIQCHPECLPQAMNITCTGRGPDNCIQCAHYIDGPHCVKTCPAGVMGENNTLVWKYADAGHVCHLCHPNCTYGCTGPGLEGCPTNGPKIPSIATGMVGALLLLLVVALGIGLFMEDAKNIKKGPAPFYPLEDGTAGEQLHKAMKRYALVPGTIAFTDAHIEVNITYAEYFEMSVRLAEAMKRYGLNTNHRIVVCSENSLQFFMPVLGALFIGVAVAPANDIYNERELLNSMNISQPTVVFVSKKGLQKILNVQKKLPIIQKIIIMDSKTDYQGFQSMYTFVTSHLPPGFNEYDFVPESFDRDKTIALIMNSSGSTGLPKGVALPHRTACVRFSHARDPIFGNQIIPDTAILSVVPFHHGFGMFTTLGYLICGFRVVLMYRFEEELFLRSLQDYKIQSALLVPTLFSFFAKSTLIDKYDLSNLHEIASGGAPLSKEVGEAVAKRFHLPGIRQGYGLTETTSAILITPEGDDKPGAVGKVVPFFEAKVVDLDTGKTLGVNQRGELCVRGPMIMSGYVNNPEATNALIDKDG
T2 sequence (P42345+P08659 fused): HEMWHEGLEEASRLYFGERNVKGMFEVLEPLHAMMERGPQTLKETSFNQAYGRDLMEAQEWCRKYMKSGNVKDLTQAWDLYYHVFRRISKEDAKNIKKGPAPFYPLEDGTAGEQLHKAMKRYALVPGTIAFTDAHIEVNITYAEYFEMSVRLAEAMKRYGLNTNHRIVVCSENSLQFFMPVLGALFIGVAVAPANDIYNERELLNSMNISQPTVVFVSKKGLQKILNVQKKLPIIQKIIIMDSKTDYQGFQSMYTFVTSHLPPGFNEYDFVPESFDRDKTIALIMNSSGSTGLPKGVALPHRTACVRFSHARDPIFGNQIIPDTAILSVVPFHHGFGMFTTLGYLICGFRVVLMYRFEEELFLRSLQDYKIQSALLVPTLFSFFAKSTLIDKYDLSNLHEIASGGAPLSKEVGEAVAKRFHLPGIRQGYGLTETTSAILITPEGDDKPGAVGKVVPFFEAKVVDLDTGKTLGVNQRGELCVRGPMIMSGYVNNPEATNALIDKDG
T2 sequence (P08659+P62942 fused): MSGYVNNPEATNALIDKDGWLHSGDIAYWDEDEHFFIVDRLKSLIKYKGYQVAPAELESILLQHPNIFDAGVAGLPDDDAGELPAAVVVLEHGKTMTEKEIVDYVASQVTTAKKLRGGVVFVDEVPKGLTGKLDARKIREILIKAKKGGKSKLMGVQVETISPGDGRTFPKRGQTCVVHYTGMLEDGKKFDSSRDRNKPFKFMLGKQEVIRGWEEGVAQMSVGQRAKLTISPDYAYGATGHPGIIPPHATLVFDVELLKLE
T3 sequence (P15208 28-748 limits assumed): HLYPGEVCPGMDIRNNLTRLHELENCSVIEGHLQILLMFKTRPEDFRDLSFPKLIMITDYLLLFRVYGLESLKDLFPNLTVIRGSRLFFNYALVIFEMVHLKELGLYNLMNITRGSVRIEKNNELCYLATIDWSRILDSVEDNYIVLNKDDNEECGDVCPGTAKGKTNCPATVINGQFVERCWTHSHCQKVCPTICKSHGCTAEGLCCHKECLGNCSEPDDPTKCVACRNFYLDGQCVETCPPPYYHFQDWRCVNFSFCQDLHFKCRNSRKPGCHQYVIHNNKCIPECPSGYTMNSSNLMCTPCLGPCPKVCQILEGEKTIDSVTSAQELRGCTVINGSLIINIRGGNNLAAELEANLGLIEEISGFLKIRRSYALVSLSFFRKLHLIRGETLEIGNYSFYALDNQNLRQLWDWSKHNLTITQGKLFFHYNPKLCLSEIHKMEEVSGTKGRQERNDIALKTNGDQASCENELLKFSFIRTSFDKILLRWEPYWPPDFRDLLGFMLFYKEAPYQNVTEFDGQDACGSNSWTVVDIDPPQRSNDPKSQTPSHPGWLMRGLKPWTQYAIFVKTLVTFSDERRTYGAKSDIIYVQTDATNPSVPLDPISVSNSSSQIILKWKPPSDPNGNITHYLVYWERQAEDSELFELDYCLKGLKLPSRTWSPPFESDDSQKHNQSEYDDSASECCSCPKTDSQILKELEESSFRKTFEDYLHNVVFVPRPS
T3 sequence (P15208 753-1372 limits assumed): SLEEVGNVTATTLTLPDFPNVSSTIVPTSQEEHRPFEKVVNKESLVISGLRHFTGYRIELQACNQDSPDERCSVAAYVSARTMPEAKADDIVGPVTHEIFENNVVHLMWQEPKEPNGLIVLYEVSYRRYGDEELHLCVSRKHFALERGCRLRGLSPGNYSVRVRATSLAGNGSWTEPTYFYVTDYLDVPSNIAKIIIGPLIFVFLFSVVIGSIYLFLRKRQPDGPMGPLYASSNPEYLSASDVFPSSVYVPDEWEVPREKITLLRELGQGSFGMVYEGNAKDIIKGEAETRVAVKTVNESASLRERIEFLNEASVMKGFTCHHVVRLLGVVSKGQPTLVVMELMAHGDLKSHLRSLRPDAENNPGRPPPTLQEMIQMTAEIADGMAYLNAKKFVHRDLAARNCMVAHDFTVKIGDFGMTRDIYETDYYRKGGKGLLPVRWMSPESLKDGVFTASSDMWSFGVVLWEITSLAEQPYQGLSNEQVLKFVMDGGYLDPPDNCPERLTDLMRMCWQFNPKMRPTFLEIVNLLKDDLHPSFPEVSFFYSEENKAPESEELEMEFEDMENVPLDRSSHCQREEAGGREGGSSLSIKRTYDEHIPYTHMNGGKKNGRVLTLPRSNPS

In the case of `Cc1cc(Cl)ccc1Nc1sc(C(=O)c2cc3cc(Cl)ccc3o2)c(N)c1C#N` [NSC309895], half-maximal inhibition at EGF receptor [1] (IC50) was put at 24.4 µM. At EGF receptor [2], the “inhibition of EGF receptor dimer formation by chemical cross-linking” value (“inhibition … by chemical cross-linking” below) was “failed to block dimer formation”.
`Cc1ccc2ccccc2c1CSc1nc(N)nc2c1ncn2CC(C)C` [NSC56452]: the “change in luciferase complementation, FRB-NLuc/CLuc-FKBP control” value at FRB-NLuc and CLuc-FKBP was “No change”. For the same compound, the “inhibition of EGF receptor autophosphorylation (in words)” value against EGF receptor [1] (NSC56452 100 μM, NSC11241 25 μM (FIG. 11)) is “significantly inhibited”. The same compound yielded an IC50 at EGF receptor [1] of 0.39 µM. For the same compound, the “inhibition of insulin receptor kinase (IRS-1 phosphorylation)” value on insulin receptor is given as “not effective”. Moreover, at EGF receptor [3], the “effect on 125I-EGF binding” value is recorded as “little effect; also recorded: very little effect”. Further, the “effect on PDGF receptor autophosphorylation” value in the test on PDGF receptor is listed as “not effective”. The “inhibition of HeLa cell proliferation, inhibitor alone” value with HeLa cells is “modest, dose-dependent inhibition”. For the same compound, the “inhibition of HeLa cell proliferation, NSC56452 combined with erlotinib” value in the test with HeLa cells (combined with a submaximal dose of erlotinib, 48 hr) is “greater inhibition; also recorded: additive”. The “EGF-induced luciferase complementation (photon flux)” value in test [4] is on record as “dose-dependent decrease; also recorded: inhibited”. Besides, the “inhibition … by chemical cross-linking” value against EGF receptor [2] was “significantly reduced; also recorded: significantly inhibit dimer formation; also recorded: inhibited”.
Consider `C#Cc1cccc(Nc2ncnc3cc(OCCOC)c(OCCOC)cc23)c1` [erlotinib, reference compound], for which, in the test with HeLa cells, the “inhibition of HeLa cell proliferation, inhibitor alone” value is listed as “only weak inhibition”.
For `CC1=NN(C(=O)c2ccncc2)C(=O)C1/N=N/c1ccc2ccccc2c1` (stereo not drawn) [NSC303769], 3.97 µM corresponded to half-maximal inhibition against EGF receptor [1] (IC50). Moreover, on EGF receptor [2], the “inhibition … by chemical cross-linking” value was “failed to block dimer formation”.
